# Source: US20070167528A1, “Methods of treating hepatocellular carcinoma with denspm” (Genzyme Corporation, priority 2004, published 2007)
# Experiments:
# [1] = Solubility of DENSPM hydrochloride salt in sterile water for injection; assay type: physicochemical; settings: as its hydrochloride salt
# Description: The terms “pharmaceutical composition” and “pharmaceutical preparation” are used interchangeably herein to mean DENSPM in association with a pharmaceutically-acceptable carrier. Excipients and/or adjuvants may optionally be added to the pharmaceutical preparations. DENSPM preparations may be conveniently provided in unit dosage form and may be prepared by methods well-known in the art of pharmacy. Formulations suitable for intravenous administration are preferred. […] Such a solution may be filled into individual dose vials and lyophilized for future reconstitution and administration.
# [2] = Physical and chemical stability of DENSPM preparations at room temperature; assay type: physicochemical
# Protocol: DENSPM may be supplied as a lyophilized powder, for example packaged in 10 mL clear glass vials containing 215 mg. Such a lyophilized powder may be prepared by dissolving DENSPM hydrochloride in sterile WFI to provide a 5% solution. Such solution may be pH adjusted to a pH of preferably between about 5.8 and 6.2, most preferably 6.0, with 2N NaOH. 4.3 ml of this solution is sterile filled into the glass vials thru Millipak (R) 0.45 and 0.22 micron filters and then lyophilized. […] DENSPM is reconstituted with 4.3 mL of water for injection, USP. The resulting solution contains 50 mg/mL of DENSPM and is chemically and physically stable for up to approximately 96 hours at room temperature. When further diluted in 50 mL normal saline, the resulting admixture is chemically and physically stable for up to 24 hours when stored at room temperature. After reconstitution, the drug is normally used within 8 hours because it contains no preservatives.
# [3] = stated as known effect of DENSPM; cited from earlier work
smiles,measurement,setting,value
"CCNCCCNCCCNCCCNCC [DENSPM, N,N′-Bis[3-(ethylamino)propyl],1,3-propanediamine]",solubility,[1],relatively high solubility
same,chemical and physical stability of diluted admixture,"[2]; further diluted in 50 mL normal saline, stored at room temperature",up to 24 hours
same,physical and chemical stability of lyophilized powder,"[2]; lyophilized powder from 5% DENSPM hydrochloride solution, pH about 6.0, stored at room temperature",physically and chemically stable
same,chemical and physical stability of reconstituted solution,"[2]; reconstituted with 4.3 mL water for injection, 50 mg/mL, room temperature",≤ 96 h
same,serum creatinine levels,[3],transiently and reversibly elevate serum creatinine levels
